Laboratory results reported in PMC5663926, “In vivo near-infrared imaging of ErbB2 expressing breast tumors with dual-axes confocal endomicroscopy using a targeted peptide” (Scientific Reports, 2017).

How the values were obtained:
[1] = system: ErbB2 on SKBR3 human breast cancer cells; test: siRNA knockdown of ErbB2 in SKBR3 cells, binding of labeled ligand; type: cell-based
Procedure: We performed siRNA knockdown of ErbB2 in SKBR3 human breast cancer cells to validate specific binding of KSP* to ErbB2.
(§1) ~10^4 human breast cancer cells were seeded on 1 mm thick cover glass, and grown to ~80% confluence in 12 well plates. The cells were gently washed with cold PBS and blocked with 2% BSA before incubation with peptides. 1 μM of IRDye800CW-labeled peptides mixed with 2% BSA was added to each well and incubated at 4 °C for 1 hour. After incubation for […], the cells were washed with PBS 3X, fixed in ice cold 4% PFA for 10 min, and washed with PBS 1X. The cells were then embedded on microscope slides with 5 μL of ProLong Gold reagent containing DAPI (Invitrogen). SKBR3 cells were cultured in 6-well plates at 30–40% confluence in culture media supplemented with 10% fetal bovine serum without antibiotics. The cells were transfected with siRNA with a final concentration of […] using oligofectamine (Thermo Scientific).
We examined ErbB2 knockdown in SKBR3 cells using ON-TARGETplus human siRNA (#L-003126–00–0005), ON-TARGETplus Non-targeting pool (#D-001810–10–05), and DharmaFECT transfection reagents (Thermo Scientific) per manufacturer instructions. We transfected SKBR3 cells with either siErbB2 (targeting siRNA) or siCL (non-targeting siRNA) for control at a final concentration of […] using oligofectamine (Thermo Scientific).

[2] = system: ErbB2 on SKBR3 cells; test: Binding co-localization with anti-ErbB2 antibody on cells; type: cell-based, human; conditions: KSP*-Cy5.5 and anti-ErbB2-AF488, average of 3 independent measurements
Procedure: […] The cells were washed and fixed with 4% PFA for 5 min, and then incubated with primary anti-ErbB2 and secondary AF488-labeled antibody.
For imaging, we used an inverted confocal microscope (Olympus FV1200) with a 63X water immersion objective and λex = 748 nm to excite IRDye800CW, λex = 405 nm for DAPI, and λex = 488 nm for Alexa Fluor 488. For antibody staining, the cells were pre-fixed with cold methanol for 10 min at −20 °C and blocked with 2% BSA for 30 min at room temperature (RT). Cells were incubated with a 1:450 dilution of anti-ErbB2 antibody (clone 111.6, Thermo Scientific) overnight at 4 °C. The cells were then washed with PBS 3X, and secondary goat […] antibody labeled with Alexa-Fluor 488 (AF488) was added to the cells for 1 hour at RT. The cells were washed further with PBS and mounted onto cover glass. Fluorescence intensities were measured from 3 randomly positioned boxes with dimensions of 20 × 20 μm^2, and were quantified using custom Matlab (Mathworks) software.

[3] = molecular target: ErbB2 extracellular domain 3; conditions: cited from earlier work
[4] = system: ErbB2 on BT474 (ErbB2+) and MDA-MB-231 (ErbB2−) human breast cancer cells; test: Confocal microscopy of NIR-labeled peptide binding to breast cancer cells; type: cell-based; conditions: 1 μM peptide, 2% BSA, 4 °C, 1 hour
Procedure: as §1
For imaging, we used an inverted confocal microscope (Olympus FV1200) with a 63X water immersion objective and λex = 748 nm to excite IRDye800CW, λex = 405 nm for DAPI, and λex = 488 nm for Alexa Fluor 488. For antibody staining, the cells were pre-fixed with cold methanol for 10 min at −20 °C and blocked with 2% BSA for 30 min at room temperature (RT). […] Fluorescence intensities were measured from 3 randomly positioned boxes with dimensions of 20 × 20 μm^2, and were quantified using custom Matlab (Mathworks) software.

[5] = system: ErbB2 in BT474 and MDA-MB-231 xenograft tumor and normal breast sections; test: Immunofluorescence of human xenograft breast tumor sections; set-up: species or system mouse; conditions: 0.5 μM peptide, 10 min at RT
Procedure: Representative histology (H&E) for the MDA-MB-231 tumor is shown, Fig. S7I. […] Representative histology (H&E) for normal is shown, Fig. S7M.
(§2) Resected human xenograft breast tumors and normal breast tissues from n = 8 mice were formalin-fixed, paraffin embedded, and cut in 5 μm thick sections. IDC and normal human breast tissues were collected and prepared with the same protocol. The specimens were cut in 5 μm sections, and deparaffinization, rehydration and antigen unmasking was performed, as described previously. Blocking was performed with DAKO protein blocking agent (X0909, DAKO) for 1 hour at RT. Sections were then incubated with 0.5 μM of either peptide in 2% BSA for 10 min at RT. The sections were washed with PBS 3X and mounted with Prolong Gold reagent containing DAPI (Invitrogen).

[6] = system: ErbB2 in human breast specimens (IDC, DCIS, normal); test: Immunofluorescence of human breast specimens ex vivo
Description: We evaluated peptide binding to sections of human breast specimens to assess potential for clinical translation. […] Representative histology (H&E) is shown, Fig. 6D. We also observed strong co-localization of binding (arrow) between KSP*-IR800 peptide (red) and AF488-labeled anti-ErbB2 antibody (green) to ErbB2 + IDC specimens with Pearson’s correlation coefficient of ρ = 0.53, Fig. 6E,F. We quantified the fluorescence intensities, Fig. 6G. […] Representative histology (H&E) for DCIS is shown, Fig. 6M. […] Representative histology (H&E) for normal is shown, Fig. 6O.
as §2
Formalin-fixed, paraffin-embedded (FFPE) human breast specimens known to express ErbB2 (n = 4 patients) were obtained from the archived tissue bank in the Department of Pathology at the University of Michigan. 5 μm sections were cut and rehydrated to water. Slides were counterstained with Harris Hematoxylin for 5 sec, dehydrated, and cover-slipped. Heat induced epitope retrieval was performed with FLEX TRS High pH Retrieval buffer (DAKO, 9.01) for 20 min. After peroxidase blocking, the antibody Her2/neu rabbit monoclonal (Cell Marque Corporation, SP3 cat#237R-16) was applied at a dilution of 1:150 at RT for 20 min. The EnVision + detection System HRP anti-rabbit (DAKO, #K4002) was used for detection. DAB chromogen was then applied for 10 min. Sections of human breast specimens were mounted onto glass slides (Superfrost Plus, Fischer Scientific). The tissues were deparaffinized, and antigen retrieval was performed, as discussed above. Histology and IHC were performed to evaluate for ErbB2 expression.
Human breast specimens were embedded in paraffin and antigen unmasking was performed as described above. Blocking was performed with 2% BSA solution in PBS at RT for 1 hour. We used 1:250 dilution of monoclonal mouse anti-ErbB2 antibody (clone 111.6, Thermo Scientific). The sections were incubated at RT for 1 hour with primary antibody and then washed in PBS for 5 min. […] Fluorescence intensities were measured from 3 randomly positioned boxes with dimensions of 20 × 20 μm^2.

[7] = Absorption and fluorescence emission spectra; type: physicochemical
Description: We synthesized the ErbB2 and control peptides using standard Fmoc mediated solid-phase chemical synthesis and labeled with either Cy5.5 or IRDye800 fluorophores via standard bio-conjugation techniques. We used IRDye800CW-malemide (LiCor Biosciences) to label the peptide via a GGGSC linker at the C-terminus. The coupling yield was about 20–30% in aqueous solution without use of catalysis. IRDye800CW was used because of its high quantum yield, photostability, and lack of toxicity. The peptide absorption spectrum was measured using a UV-vis spectrophotometer in the 300–900 nm range (NanoDrop 2000, Thermo Scientific). Fluorescence emission from a 5 μM peptide solution diluted in PBS was collected with a fiber coupled spectrophotometer (Ocean Optics) using a diode pumped solid state laser (Technica Laser Inc) with excitation at λex = 780 nm. The spectra were plotted using Origin 9.5 software (OriginLab Corp).

[8] = system: ErbB2; test: Competition with unlabeled peptide for binding of labeled KSP* to cells; type: cell-based, human; conditions: unlabeled peptide 0, 100, 250, 500, 1000 μM, 30 min at 4 °C; for effect of unlabeled peptide on binding of KSP*-IR800: BT474 cells as per Results text, then 0.5 μM labeled peptide; for effect of unlabeled peptide on mean fluorescence intensity of KSP*-Cy5.5: SKBR3 cells, one-way ANOVA (Fig. 2 legend)
Procedure: We performed competition by adding either unlabeled KSP* or PPS* peptide to block binding of KSP*-IR800 to BT474 cells. […] We also observed good co-localization of binding between KSP*-Cy5.5 (red) and AlexaFluor488-labeled anti-ErbB2 antibody (green) with Pearson’s correlation coefficient ρ = 0.70, Fig. 2P–S.
Specific binding of KSP*-IR800 to SKBR3 cells was validated using competition with unlabeled KSP* peptide. SKBR3 cells were grown to ~70% confluence on coverslips in triplicate. Unlabeled KSP* at concentrations of 0, 100, 250, 500, and 1000 μM was incubated with the cells for 30 min at 4 °C. The cells were washed with PBS 3X, and further incubated with 0.5 μM of KSP*-IR800 for another 30 min at 4 °C. The cells were washed with PBS 3X and fixed with 4% PFA for 10 min. The cells were washed with PBS and then mounted with ProLong Gold reagent containing DAPI (Invitrogen). Confocal fluorescence images were collected and intensities from 6 independent images at each concentration were quantified using custom Matlab (Mathworks) software.

In the case of KSPNPRF [KSP*-Cy5.5], the “fold greater signal, siCL control versus siErbB2 knockdown cells” value ([1]; SKBR3, average of 3 independent measurements, ANOVA, difference of differences significant) is reported as 4.42 fold, the “reduction in fluorescence intensities in ErbB2 knockdown cells” value ([1]; SKBR3 siErbB2 versus siCL, qualitative) is reported as “significant reduction” and the “binding to cell surface” value ([1]; control SKBR3 cells (siCL), qualitative) is reported as “strong binding”. The “Pearson's correlation coefficient ρ for co-localization with anti-ErbB2-AF488” value [2] was 0.70, the Kd ([3]; peptide labeled with Cy5.5, read-out: affinity) was 20 nM and the “binding kinetics (rate)” value ([3]; peptide labeled with Cy5.5) was 0.14 min⁻¹.

In the case of PPSNFKR [PPS*-IR800], the “fold greater signal, BT474 versus MDA-MB-231 cells” value ([4]; average of 3 independent measurements, ANOVA on log-transformed data, difference of differences significant) is reported as 1.04 fold, the “signal to cell surface” value ([4]; either cell (BT474 and MDA-MB-231), qualitative) is reported as “Minimal signal” and the “binding / signal on immunofluorescence” value ([5]; BT474 xenograft tumor sections, 2% BSA, qualitative) is reported as “minimal signal”. For the same substance, the “fluorescence intensity on immunofluorescence” value ([5]; MDA-MB-231 tumor sections, qualitative) was “minimal”, the “fluorescence intensity on immunofluorescence” value ([5]; normal breast sections, qualitative) was “minimal” and the “fold increase, BT474 versus MDA-MB-231 tumors” value ([5]; xenograft tumor sections, ANOVA with terms for 6 groups on log-transformed data) was 1.8 fold. The “binding / signal on immunofluorescence” value ([6]; ductal carcinoma in situ (DCIS), 0.5 μM peptide, 10 min at RT, qualitative) was “minimal signal”, the “binding / signal on immunofluorescence” value ([6]; invasive ductal carcinoma (IDC), 0.5 μM peptide, 2% BSA, 10 min at RT, qualitative) was “minimal signal” and the “fold greater signal, IDC (ErbB2+) versus normal (ErbB2−) breast” value ([6]; n = 4 patients, ANOVA on log-transformed data, difference of differences not significant, P = 0.09) was 1.30 fold. For the same substance, the staining on immunofluorescence ([6]; normal human breast tissue, 0.5 μM peptide, 10 min at RT, qualitative) was “minimal staining”, the “peak emission λem” value ([7]; 5 μM peptide solution diluted in PBS, excitation 780 nm) was 800 nm and the “maximum absorbance λex” value ([7]; UV-vis spectrophotometer, 300–900 nm range) was 780 nm.

For “PPSNFKR [PPS*, unlabeled scrambled control peptide]”, the “effect of unlabeled peptide on binding of KSP*-IR800” value [8] was “significantly less effective competition” and the “effect of unlabeled peptide on mean fluorescence intensity of KSP*-Cy5.5” value [8] was “significantly less affected”.

In the case of KSPNPRF [KSP*], the “effect of unlabeled peptide on binding of KSP*-IR800” value [8] is reported as “decreases significantly in a concentration dependent manner” and the “effect of unlabeled peptide on mean fluorescence intensity of KSP*-Cy5.5” value [8] is reported as “decreases significantly in a concentration dependent manner”.
